{"source": "ChEMBL document CHEMBL1201862", "about": "“PubChem BioAssay data set” (2004)", "assay_in_all_cases": "NCI tumour cell line growth inhibition, 48 h", "key": {"KM12": {"system": "KM12"}, "LOX IMVI": {"system": "LOX IMVI"}, "OVCAR-4": {"system": "OVCAR-4"}, "SF-539": {"system": "SF-539"}, "NCI-H522": {"system": "NCI-H522"}, "HOP-92": {"system": "HOP-92"}, "Malme-3M": {"system": "Malme-3M"}, "SF-295": {"system": "SF-295"}, "RXF 393": {"system": "RXF 393"}, "A549": {"system": "A549"}, "NCI/ADR-RES": {"system": "NCI/ADR-RES"}, "UO-31": {"system": "UO-31"}, "OVCAR-3": {"system": "OVCAR-3"}, "HL-60": {"system": "HL-60"}, "U-251": {"system": "U-251"}, "M14": {"system": "M14"}, "786-0": {"system": "786-0"}, "SNB-75": {"system": "SNB-75"}, "SNB-19": {"system": "SNB-19"}}, "note": "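Five compound concentrations were applied to cells in 96-well plates for 48 hours; endpoints were derived by simple linear interpolation of the resulting dose-response curve. Abbreviation: GI50, concentration required for 50% inhibition of growth.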 The source made the active and inactive calls. Cut-off read from the data, not from the text of the source: active = GI50 up to about 1.1 µM and inactive = higher. Square brackets hold non-standard residues; d marks the D form. Peptide text beside a SMILES is read from it. * marks the point of attachment. ξ: configuration not given here. ξW = NC(Cc1c[nH]c2ccccc12)C(=O)O; X29 = O=C(O)[C@H]1CCC[C@H]1N*; ξF = NC(Cc1ccccc1)C(=O)O; Boc = CC(C)(C)OC(=O)*; ξK = NCCCCC(N)C(=O)O; ξT = CC(O)C(N)C(=O)O; tBu = CC(C)(C)*", "data": [{"smiles": "Fc1c(F)c(C(F)(F)F)c(F)c(F)c1N/N=C/c1cn(Cc2ccccc2)c2ccccc12", "values": [{"measurement": "GI50", "setting": "KM12", "result": "20 µM (inactive)"}, {"measurement": "GI50", "setting": "LOX IMVI", "result": "22.8 µM (inactive)"}, {"measurement": "GI50", "setting": "OVCAR-4", "result": "23.4 µM (inactive)"}, {"measurement": "GI50", "setting": "SF-539", "result": "20 µM (inactive)"}, {"measurement": "GI50", "setting": "NCI-H522", "result": "23.7 µM (inactive)"}, {"measurement": "GI50", "setting": "HOP-92", "result": "24 µM (inactive)"}, {"measurement": "GI50", "setting": "Malme-3M", "result": "30.4 µM (inactive)"}, {"measurement": "GI50", "setting": "SF-295", "result": "13.6 µM (inactive)"}, {"measurement": "GI50", "setting": "RXF 393", "result": "17.7 µM (inactive)"}, {"measurement": "GI50", "setting": "A549", "result": "27.9 µM (inactive)"}, {"measurement": "GI50", "setting": "NCI/ADR-RES", "result": "24.7 µM (inactive)"}, {"measurement": "GI50", "setting": "UO-31", "result": "23.4 µM (inactive)"}, {"measurement": "GI50", "setting": "OVCAR-3", "result": "13.2 µM (inactive)"}, {"measurement": "GI50", "setting": "HL-60", "result": "21.8 µM (inactive)"}, {"measurement": "GI50", "setting": "U-251", "result": "34 µM (inactive)"}, {"measurement": "GI50", "setting": "M14", "result": "18.2 µM (inactive)"}, {"measurement": "GI50", "setting": "786-0", "result": "23.2 µM (inactive)"}, {"measurement": "GI50", "setting": "SNB-75", "result": "20 µM (inactive)"}, {"measurement": "GI50", "setting": "SNB-19", "result": "30.1 µM (inactive)"}]}, {"smiles": "CC(C)(C)C(=O)C(C(=O)C(C)(C)C)C(=O)C(C)(C)C", "values": [{"measurement": "GI50", "setting": "KM12", "result": "> 100 µM (inactive)"}, {"measurement": "GI50", "setting": "LOX IMVI", "result": "> 100 µM (inactive)"}, {"measurement": "GI50", "setting": "OVCAR-4", "result": "> 100 µM (inactive)"}, {"measurement": "GI50", "setting": "SF-539", "result": "> 100 µM (inactive)"}, {"measurement": "GI50", "setting": "NCI-H522", "result": "> 100 µM (inactive)"}, {"measurement": "GI50", "setting": "HOP-92", "result": "> 100 µM (inactive)"}, {"measurement": "GI50", "setting": "Malme-3M", "result": "> 100 µM (inactive)"}, {"measurement": "GI50", "setting": "SF-295", "result": "> 100 µM (inactive)"}, {"measurement": "GI50", "setting": "RXF 393", "result": "> 100 µM (inactive)"}, {"measurement": "GI50", "setting": "A549", "result": "> 100 µM (inactive)"}, {"measurement": "GI50", "setting": "NCI/ADR-RES", "result": "> 100 µM (inactive)"}, {"measurement": "GI50", "setting": "UO-31", "result": "> 100 µM (inactive)"}, {"measurement": "GI50", "setting": "OVCAR-3", "result": "> 100 µM (inactive)"}, {"measurement": "GI50", "setting": "HL-60", "result": "> 100 µM (inactive)"}, {"measurement": "GI50", "setting": "U-251", "result": "> 100 µM (inactive)"}, {"measurement": "GI50", "setting": "M14", "result": "> 100 µM (inactive)"}, {"measurement": "GI50", "setting": "786-0", "result": "> 100 µM (inactive)"}, {"measurement": "GI50", "setting": "SNB-75", "result": "71 µM (inactive)"}, {"measurement": "GI50", "setting": "SNB-19", "result": "> 100 µM (inactive)"}]}, {"smiles": "C=C(C)[C@@H](O)[C@H](O)C[C@H](C)C1CC[C@]2(C)C1=CC[C@@H]1[C@@]3(C)CC[C@@H](OC(C)=O)C(C)(C)[C@@H]3C[C@@H](OC3OC(COC(C)=O)C(O)C(O)C3O)[C@]12C", "note": "(stereo not given in full)", "values": [{"measurement": "GI50", "setting": "KM12", "result": "1.6 µM (inactive)"}, {"measurement": "GI50", "setting": "LOX IMVI", "result": "1.73 µM (inactive)"}, {"measurement": "GI50", "setting": "OVCAR-4", "result": "2.96 µM (inactive)"}, {"measurement": "GI50", "setting": "SF-539", "result": "3.66 µM (inactive)"}, {"measurement": "GI50", "setting": "NCI-H522", "result": "1.67 µM (inactive)"}, {"measurement": "GI50", "setting": "HOP-92", "result": "2.37 µM (inactive)"}, {"measurement": "GI50", "setting": "Malme-3M", "result": "2.06 µM (inactive)"}, {"measurement": "GI50", "setting": "SF-295", "result": "2.16 µM (inactive)"}, {"measurement": "GI50", "setting": "RXF 393", "result": "1.98 µM (inactive)"}, {"measurement": "GI50", "setting": "A549", "result": "3.48 µM (inactive)"}, {"measurement": "GI50", "setting": "NCI/ADR-RES", "result": "15 µM (inactive)"}, {"measurement": "GI50", "setting": "UO-31", "result": "3.48 µM (inactive)"}, {"measurement": "GI50", "setting": "OVCAR-3", "result": "2.17 µM (inactive)"}, {"measurement": "GI50", "setting": "HL-60", "result": "2.05 µM (inactive)"}, {"measurement": "GI50", "setting": "U-251", "result": "2.32 µM (inactive)"}, {"measurement": "GI50", "setting": "M14", "result": "2.72 µM (inactive)"}, {"measurement": "GI50", "setting": "786-0", "result": "3.44 µM (inactive)"}, {"measurement": "GI50", "setting": "SNB-75", "result": "2.45 µM (inactive)"}, {"measurement": "GI50", "setting": "SNB-19", "result": "3.71 µM (inactive)"}]}, {"smiles": "Nc1ncc(Cl)c(NCC2(CO)CC(CCc3ccccc3)C2)n1", "note": "(stereo not given)", "values": [{"measurement": "GI50", "setting": "KM12", "result": "> 100 µM (inactive)"}, {"measurement": "GI50", "setting": "LOX IMVI", "result": "0.785 µM (active)"}, {"measurement": "GI50", "setting": "OVCAR-4", "result": "> 100 µM (inactive)"}, {"measurement": "GI50", "setting": "SF-539", "result": "> 100 µM (inactive)"}, {"measurement": "GI50", "setting": "NCI-H522", "result": "> 76.2 µM (inactive)"}, {"measurement": "GI50", "setting": "HOP-92", "result": "5.69 µM (inactive)"}, {"measurement": "GI50", "setting": "Malme-3M", "result": "> 100 µM (inactive)"}, {"measurement": "GI50", "setting": "SF-295", "result": "5.2 µM (inactive)"}, {"measurement": "GI50", "setting": "RXF 393", "result": "> 100 µM (inactive)"}, {"measurement": "GI50", "setting": "A549", "result": "> 21.1 µM (inactive)"}, {"measurement": "GI50", "setting": "NCI/ADR-RES", "result": "3.61 µM (inactive)"}, {"measurement": "GI50", "setting": "UO-31", "result": "> 100 µM (inactive)"}, {"measurement": "GI50", "setting": "OVCAR-3", "result": "> 100 µM (inactive)"}, {"measurement": "GI50", "setting": "HL-60", "result": "1.13 µM (inactive)"}, {"measurement": "GI50", "setting": "U-251", "result": "44.6 µM (inactive)"}, {"measurement": "GI50", "setting": "M14", "result": "> 100 µM (inactive)"}, {"measurement": "GI50", "setting": "786-0", "result": "> 100 µM (inactive)"}, {"measurement": "GI50", "setting": "SNB-75", "result": "46.2 µM (inactive)"}, {"measurement": "GI50", "setting": "SNB-19", "result": "> 100 µM (inactive)"}]}, {"smiles": "CC(OC(C)(C)C)C(NC(=O)C(CCCCNC(=O)OC(C)(C)C)NC(=O)C(Cc1c[nH]c2ccccc12)NC(=O)C(N)Cc1ccccc1)C(=O)NC(Cc1ccccc1)C(=O)N[C@@H]1CCC[C@@H]1C(=O)O", "note": "(stereo not given in full) (H-[ξF][ξW][ξK](Boc)[ξT](tBu)[ξF]-X29)", "values": [{"measurement": "GI50", "setting": "KM12", "result": "19.4 µM (inactive)"}, {"measurement": "GI50", "setting": "LOX IMVI", "result": "20.8 µM (inactive)"}, {"measurement": "GI50", "setting": "OVCAR-4", "result": "71.4 µM (inactive)"}, {"measurement": "GI50", "setting": "SF-539", "result": "19.4 µM (inactive)"}, {"measurement": "GI50", "setting": "NCI-H522", "result": "20.7 µM (inactive)"}, {"measurement": "GI50", "setting": "HOP-92", "result": "30.3 µM (inactive)"}, {"measurement": "GI50", "setting": "Malme-3M", "result": "40 µM (inactive)"}, {"measurement": "GI50", "setting": "SF-295", "result": "> 100 µM (inactive)"}, {"measurement": "GI50", "setting": "RXF 393", "result": "> 100 µM (inactive)"}, {"measurement": "GI50", "setting": "A549", "result": "> 100 µM (inactive)"}, {"measurement": "GI50", "setting": "NCI/ADR-RES", "result": "> 100 µM (inactive)"}, {"measurement": "GI50", "setting": "UO-31", "result": "> 100 µM (inactive)"}, {"measurement": "GI50", "setting": "OVCAR-3", "result": "37.1 µM (inactive)"}, {"measurement": "GI50", "setting": "HL-60", "result": "29 µM (inactive)"}, {"measurement": "GI50", "setting": "U-251", "result": "24.3 µM (inactive)"}, {"measurement": "GI50", "setting": "M14", "result": "> 100 µM (inactive)"}, {"measurement": "GI50", "setting": "786-0", "result": "> 100 µM (inactive)"}, {"measurement": "GI50", "setting": "SNB-75", "result": "59.6 µM (inactive)"}, {"measurement": "GI50", "setting": "SNB-19", "result": "33.6 µM (inactive)"}]}]}
